The text below walks through data of patent US8618162B2 (priority 2007, dated 2013).

The subject of one assay is Anopheles gambiae. The assay is described as follows: Live mosquito contact toxicity, WHO filter paper assay. In kind it is in vivo.
The target of the next assay is T1, bovine AChE (Bos taurus, UniProt P23795).
T1 sequence (P23795 31-613): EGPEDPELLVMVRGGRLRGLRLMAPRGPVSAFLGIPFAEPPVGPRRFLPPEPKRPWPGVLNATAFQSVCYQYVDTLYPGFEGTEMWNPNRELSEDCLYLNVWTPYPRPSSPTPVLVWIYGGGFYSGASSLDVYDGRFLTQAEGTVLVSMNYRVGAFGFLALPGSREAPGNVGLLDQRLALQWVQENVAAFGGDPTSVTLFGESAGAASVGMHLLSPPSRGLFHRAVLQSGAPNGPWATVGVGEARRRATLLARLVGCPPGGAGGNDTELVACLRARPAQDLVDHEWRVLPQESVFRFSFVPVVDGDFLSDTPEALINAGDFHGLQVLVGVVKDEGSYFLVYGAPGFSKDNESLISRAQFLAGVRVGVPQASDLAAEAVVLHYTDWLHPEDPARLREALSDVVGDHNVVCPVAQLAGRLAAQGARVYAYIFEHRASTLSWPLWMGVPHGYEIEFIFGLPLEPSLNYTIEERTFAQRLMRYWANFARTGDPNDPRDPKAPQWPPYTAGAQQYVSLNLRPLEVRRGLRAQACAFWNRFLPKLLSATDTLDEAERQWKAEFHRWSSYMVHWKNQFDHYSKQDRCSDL
To be noted: read-out: potency at bovine AChE; Kohn 1965; cited from earlier work.

The next assay has as its target T2, hAChE (Homo sapiens, UniProt P22303).
T2 construct: purchased Sigma C1682
As to the kind of experiment: Ellman AChE inhibition assay, recombinant hAChE. In kind it is biochemical. For orientation: DTNB colorimetry detects thiols as they appear.

Another assay concerns the target T3, Md hmg AChE (Musca domestica, UniProt Q7YWJ9).
T3 construct: Comparison of Ag homogenate and Md head; host or cells: housefly head homogenate
Particulars: read-out: Md WT hmg IC50; Musca domestica head homogenate; data from Metcalf / Kolbezen; cited from earlier work.

T3 sequence (Q7YWJ9 1-692): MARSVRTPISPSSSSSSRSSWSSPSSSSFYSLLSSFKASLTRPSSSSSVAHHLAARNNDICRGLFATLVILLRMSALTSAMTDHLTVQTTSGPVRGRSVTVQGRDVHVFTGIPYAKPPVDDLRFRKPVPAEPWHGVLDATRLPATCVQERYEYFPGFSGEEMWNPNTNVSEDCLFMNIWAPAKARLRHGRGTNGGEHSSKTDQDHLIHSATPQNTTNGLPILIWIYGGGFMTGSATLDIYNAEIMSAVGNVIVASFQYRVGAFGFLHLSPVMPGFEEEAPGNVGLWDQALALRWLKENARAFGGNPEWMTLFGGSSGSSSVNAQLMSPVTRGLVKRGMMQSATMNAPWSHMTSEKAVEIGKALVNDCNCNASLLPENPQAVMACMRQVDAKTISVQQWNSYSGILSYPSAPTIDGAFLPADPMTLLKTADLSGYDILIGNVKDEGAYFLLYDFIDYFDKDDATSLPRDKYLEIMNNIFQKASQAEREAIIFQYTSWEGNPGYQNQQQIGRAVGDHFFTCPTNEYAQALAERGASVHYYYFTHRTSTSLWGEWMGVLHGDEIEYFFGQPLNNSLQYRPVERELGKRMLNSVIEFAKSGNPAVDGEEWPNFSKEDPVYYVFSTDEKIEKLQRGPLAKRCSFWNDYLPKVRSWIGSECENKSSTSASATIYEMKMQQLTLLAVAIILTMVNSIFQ
T2 sequence (P22303 32-614): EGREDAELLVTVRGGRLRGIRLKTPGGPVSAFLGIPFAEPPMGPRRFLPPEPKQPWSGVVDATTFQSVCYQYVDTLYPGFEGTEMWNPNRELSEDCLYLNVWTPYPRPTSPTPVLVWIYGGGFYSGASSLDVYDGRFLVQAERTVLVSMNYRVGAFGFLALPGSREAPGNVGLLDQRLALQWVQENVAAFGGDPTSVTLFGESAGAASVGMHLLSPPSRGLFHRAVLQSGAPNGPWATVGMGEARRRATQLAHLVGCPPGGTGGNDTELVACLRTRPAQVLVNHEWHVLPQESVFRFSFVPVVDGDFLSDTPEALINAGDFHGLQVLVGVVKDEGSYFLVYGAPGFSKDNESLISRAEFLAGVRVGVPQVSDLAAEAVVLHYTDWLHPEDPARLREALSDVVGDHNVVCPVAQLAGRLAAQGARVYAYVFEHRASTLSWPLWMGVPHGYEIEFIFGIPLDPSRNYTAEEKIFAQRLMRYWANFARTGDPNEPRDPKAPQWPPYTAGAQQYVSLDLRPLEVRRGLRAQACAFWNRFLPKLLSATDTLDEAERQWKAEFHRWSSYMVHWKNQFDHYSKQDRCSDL

For the compound `CNC(=O)Oc1cccc(C(C)(C)C)c1` [Compound 1a, 3-tert-butylphenyl-N-methyl carbamate], the “Live Mosquito Contact Toxicity MC for 100% lethality at 24 hr” value in the assay on Anopheles gambiae (1 hr exposure to treated filter paper) was found to be 1.1 ug/cm^2. Also, the “Live Mosquito Contact Toxicity MC for 100% lethality at 24 hr, with synergist” value in the assay on Anopheles gambiae (1 hr exposure, piperonyl butoxide 0.3 mg/mL) is 0.28 ug/cm^2. Moreover, the values for the IC50 on bovine AChE, at hAChE and on Md hmg AChE were 530 nM, 265 nM and 400 nM, respectively.
